Laboratory results: ChEMBL document CHEMBL5726613, “5-(N-fused tricyclic aryl tetrahydroisoquinolin-6-yl) pyridin-3-yl acetic acid derivatives as inhibitors of human immunodeficiency virus replication” (2019)

Experiment: Inhibition of HIV Replication: A recombinant NL-RLuc proviral clone was constructed in which a section of the nef gene from NL4-3 was replaced with the Renilla Luciferase gene. This virus is fully infectious and can undergo multiple cycles of replication in cell culture. In addition, the luciferous reporter provides a simple and easy method for quantitating the extent of virus growth and consequently, the antiviral activity of test compounds. The plasmid pNLRLuc contains the proviral NL-Rluc DNA cloned into pUC18 at the PvuII site. The NL-RLuc virus was prepared by transfection of 293T cells with the plasmid pNLRLuc. Transfections were performed using the LipofectAMINE PLUS kit from Invitrogen (Carlsbad, Calif.) according to the manufacturer and the virus generated was titered in MT-2 cells. For susceptibility analyses, the titrated virus was used to infect MT-2 cells in the presence of compound, and after 5 days of incubation, cells were processed and quantitated for virus growth by the amount of expressed luciferase. Assay media was RPMI 1640 supplemented with 10% heat inactivated fetal bovine serum (FBS), 100 units/ml penicillin G/100 units/ml streptomycin, 10 mM HEPES buffer pH 7.55 and 2 mM L-glutamine. The results from at least 2 experiments were used to calculate the EC50 values. Luciferase was quantitated using the Dual Luciferase kit from Promega (Madison, Wis.). Susceptibility of viruses to compounds was determined by incubation in the presence of serial dilutions of the compound. The 50% effective concentration (EC50) was calculated by using the exponential form of the median effect equation where (Fa)=1/[1+(ED50/drug conc.)m] (Johnson Va., Byington R T. Infectivity Assay. In Techniques in HIV Research. ed. Aldovini A, Walker B D. 71-76. New York: Stockton Press. 1990).
Format: cell-based
Details: HEK-293T
`CCOc1cccc2oc3c(N4CCc5cc(-c6c(C)nc(C)c([C@H](OC(C)(C)C)C(=O)O)c6N6CCC(C)(C)CC6)ccc5C4)ncnc3c12` showed an EC50 of 1 nM.
For `Cc1nc(C)c([C@H](OC(C)(C)C)C(=O)O)c(N2CCC(C)(C)CC2)c1-c1ccc2c(c1)CCN(c1ncnc3c1oc1cccc(F)c13)C2`, the EC50 was 3 nM.
`Cc1nc(C)c([C@H](OC(C)(C)C)C(=O)O)c(N2CCC(C)(C)CC2)c1-c1ccc2c(c1)CCN(c1nc3ccccc3c3ccccc13)C2` showed an EC50 of 31 nM.
Molecule `Cc1nc(C)c([C@H](OC(C)(C)C)C(=O)O)c(N2CCC(C)(C)CC2)c1-c1ccc2c(c1)CCN(c1ncnc3c1sc1ccccc13)C2` has an EC50 of 4 nM.
In the case of `Cc1nc(C)c([C@H](OC(C)(C)C)C(=O)O)c(N2CCC(C)(C)CC2)c1-c1ccc2c(c1)CCN(c1ncnc3c1[nH]c1ccccc13)C2`, the EC50 is reported as 24 nM.
Molecule `Cc1nc(C)c([C@H](OC(C)(C)C)C(=O)O)c(N2CCC(C)(C)CC2)c1-c1ccc2c(c1)CCN(c1ncnc3sc4ccccc4c13)C2` has an EC50 of 5 nM.
Molecule `Cc1nc(C)c([C@H](OC(C)(C)C)C(=O)O)c(N2CCC(C)(C)CC2)c1-c1ccc2c(c1)CCN(c1ncnc3c1oc1ncccc13)C2` has an EC50 of 1 nM.
Molecule `Cc1nc(C)c([C@H](OC(C)(C)C)C(=O)O)c(N2CCC(C)(C)CC2)c1-c1ccc2c(c1)CCN(c1ncnc3c1oc1ccc(F)cc13)C2` has an EC50 of 2 nM.
`Cc1ccc2[nH]c3c(N4CCc5cc(-c6c(C)nc(C)c([C@H](OC(C)(C)C)C(=O)O)c6N6CCC(C)(C)CC6)ccc5C4)ncnc3c2c1` showed an EC50 of 13 nM.
In the case of `Cc1nc(C)c([C@H](OC(C)(C)C)C(=O)O)c(N2CCC(C)(C)CC2)c1-c1ccc2c(c1)CCN(c1ncnc3[nH]c4ccccc4c13)C2`, the EC50 is reported as 5 nM.
Molecule `Cc1nc(C)c([C@H](OC(C)(C)C)C(=O)O)c(N2CCC(C)(C)CC2)c1-c1ccc2c(c1)CCN(c1ncnc3c1oc1ccccc13)C2` has an EC50 of 1 nM.
`Cc1nc(C)c([C@H](OC(C)(C)C)C(=O)O)c(N2CCC(C)(C)CC2)c1-c1ccc2c(c1)CCN(c1ccc3ccc4cccnc4c3n1)C2` showed an EC50 of 3 nM.
Molecule `CCn1c2ccc(C)cc2c2ncnc(N3CCc4cc(-c5c(C)nc(C)c([C@H](OC(C)(C)C)C(=O)O)c5N5CCC(C)(C)CC5)ccc4C3)c21` has an EC50 of 45 nM.
For `Cc1ccc2c(c1)[nH]c1nc(N3CCc4cc(-c5c(C)nc(C)c([C@H](OC(C)(C)C)C(=O)O)c5N5CCC(C)(C)CC5)ccc4C3)nc(Cl)c12`, the EC50 was 5 nM.
